{
  "source": "patent US20260184669A1",
  "about": "“LIPID COMPOUND AND COMPOSITION FOR DELIVERY OF ACTIVE SUBSTANCE” (KOREA RESEARCH INSTIUTE OF BIOSCIENCE AND BIOTECHNOLOGY, priority 2022, published 2026)",
  "assay": "mRNA encapsulation efficiency (Quant-IT RiboGreen RNA assay)",
  "assay_type": "physicochemical",
  "settings": "mRNA encapsulation efficiency of mRNA-LNP made with the ionizable lipid; average of two measurements",
  "outline": "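LNP samples read with RiboGreen reagent in TE buffer with or without 2% Triton X-100 (37 °C, 10 min) to release encapsulated mRNA. Fluorescence at λex 480/λem 520 nm; EE % calculated from the two readings, averaged over two independent measurements.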",
  "data": [
    {"smiles": "CCCCC/C=C\\C/C=C\\CCCCCCCCC(CCCCCCCC/C=C\\C/C=C\\CCCCC)OC(=O)CCCN(C)C", "note": "[MC3, DLin-MC3-DMA, reference compound]", "values": [
      {"measurement": "EE (%)", "value": 95, "unit": "%"}
    ]}
  ]
}
